{"source": "patent US20050020495A1", "about": "“Antiretroviral compositions comprising thymosin alpha peptides and protease inhibitors” (priority 2001, published 2005)", "key": {"[1]": {"system": "HIV", "test": "Randomised trial of Tα1 injections versus no injections in clinically stable HIV patients; TREC response in PBMCs, lymphocyte subsets, tolerability", "assay_type": "in vivo, human", "experimental": "Efficacy of HIV treatment is shown by evaluating TREC response in peripheral blood mononuclear cells (PBMCs) to treatment with Tα1 plus an HIV inhibitory agent.\nTwenty clinically stable patients with viral loads <400 copies/ml and CD4 counts less than 200 cells/μl were randomised to receive 3.2 mg […] subcutaneous injections twice weekly or no injections for 12 weeks. CD4 and CD8 counts, CD45 RO+ and RA+ subsets and T cell re-excision circles (TREC) in peripheral blood mononuclear cells (PBMCs) were measured every four weeks, along with regular clinical assessments and routine laboratory tests."}, "[2]": {"system": "HIV", "conditions": "cited from earlier work"}}, "note": "Ends that are not written are not given here.", "data": [{"substance": "Thymosin α1 (SDAAVDTSSEITTKDLKEKKEVVEEAEN; not fully specified (N-terminus); ends and bridges not checked; UniProt P06454 2-29, looked up) [Tα1, 28-amino acid thymic peptide hormone with immunomodulatory properties, homologous to a natural product isolated from thymosin fraction 5 of calf thymuses]", "values": [{"measurement": "Signs of toxicity during the trial", "setting": "[1]; 3.2 mg subcutaneous twice weekly for 12 weeks", "result": "no patients taking the medication developed signs of toxicity"}, {"measurement": "Tolerability", "setting": "[1]; 3.2 mg subcutaneous twice weekly for 12 weeks, 13 patients on Tα1", "result": "well tolerated"}, {"measurement": "Changes in CD4, CD8 and CD45 lymphocyte subsets versus controls", "setting": "[1]; over the 12 week study period", "result": "did not differ between the groups"}, {"measurement": "Mean TREC levels relative to control group", "setting": "[1]; week 12", "result": 20, "unit": "times"}, {"measurement": "Patients with detectable TREC levels versus control patients", "setting": "[1]; week 12", "result": "far more of the Tα1 group had detectable TREC levels than control patients"}, {"measurement": "TREC levels in PBMCs versus controls", "setting": "[1]; week 12", "result": "significant increase"}, {"measurement": "CD4 counts", "setting": "[2]; given in combination with either IL-2 or interferon-α", "result": "induced increases in CD4 counts"}, {"measurement": "Systemic adverse reactions", "setting": "[2]; patients taking zidovudine monotherapy, contrasted with IL-2 or INF-α", "result": "virtual absence of any significant systemic adverse reactions"}]}]}
